Where “and” joins values, the source holds several entries; their conditions need not be identical. Equal values may be shown once.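 Following 48 hours of exposure in 96-well plates, responses at five concentrations were used to interpolate endpoints linearly. GI50 marks 50% less growth. TGI marks complete inhibition of growth.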

These results are taken from PubChem BioAssay (NCI).

Some test systems named below: TK-10 renal; PC-3 prostate; A549 NSCLC; NCI/ADR-RES ovarian; OVCAR-3 ovarian; MALME-3M melanoma; OVCAR-8 ovarian; SK-MEL-28 melanoma; RXF 393 renal; K-562 leukemia.
Experiment in all cases: growth of human tumour cells (NCI), 48 h

On to `Nc1nc(Cl)c2ncn(Cc3ccc(C45CC6CC(CC(C6)C4)C5)c(OCc4cc(F)c(F)cc4F)c3)c2n1`, for which the GI50 in the experiment on TK-10 renal was 2.88 µM; with PC-3 prostate, 1 µM; in the experiment with A549 NSCLC, 1.94 µM; with NCI/ADR-RES ovarian, 3.5 µM; with OVCAR-3 ovarian, 2.09 µM; in the experiment with MALME-3M melanoma it was 2.47 µM. The results for the GI50 in the experiment on OVCAR-8 ovarian, in the experiment with SK-MEL-28 melanoma and in the experiment with RXF 393 renal were 2.94 µM, 8.12 µM and 0.677 µM, respectively. Further, the TGI in the experiment on TK-10 renal was 10.3 µM; in the experiment with PC-3 prostate, 3.98 µM; with A549 NSCLC, 5.89 µM; in the experiment with NCI/ADR-RES ovarian it was 13.8 µM; in the experiment on OVCAR-3 ovarian it was 14.7 µM; in the experiment on MALME-3M melanoma it was 8.62 µM. Besides, the TGI with OVCAR-8 ovarian is 14.2 µM; with SK-MEL-28 melanoma, 26.3 µM; with RXF 393 renal it was 2.66 µM.
For the compound `CO[C@H]1C(=O)[C@]2(C)[C@@H](OC)C[C@H]3OC[C@@]3(OC(C)=O)[C@H]2[C@H](OC(=O)c2ccccc2)[C@]2(O)C[C@H](OC(=O)[C@H](O)[C@@H](NC(=O)OC(C)(C)C)c3ccccc3)C(C)=C1C2(C)C`, the GI50 in the experiment on TK-10 renal is less than 0.01 µM; in the experiment on K-562 leukemia it was less than 0.01 µM; in the experiment on PC-3 prostate it was less than 0.01 µM; in the experiment with A549 NSCLC, less than 0.01 µM; in the experiment with NCI/ADR-RES ovarian, 0.0269 µM; in the experiment with OVCAR-3 ovarian it was less than 0.01 µM. Further, the GI50 with OVCAR-8 ovarian and with RXF 393 renal was less than 0.01 µM in each case. Further, the TGI was 31.3 µM with TK-10 renal; greater than 100 µM with K-562 leukemia; greater than 77.8 µM in the experiment with PC-3 prostate; greater than 64.9 µM with A549 NSCLC; 1.24 µM with NCI/ADR-RES ovarian; less than 0.01 µM in the experiment on OVCAR-3 ovarian. Further, the values for the TGI in the experiment on OVCAR-8 ovarian, with SK-MEL-28 melanoma and with RXF 393 renal were greater than 100 µM, 39.8 µM and 10.7 µM, respectively.
On to `CCOC(=O)c1cn(C)c2c(OC)c3ccccc3c(OC)c2c1=O`, for which the GI50 in the experiment on TK-10 renal was 30.1 µM; in the experiment on K-562 leukemia, 36.4 µM; with PC-3 prostate, 29 µM; in the experiment with A549 NSCLC, 36.4 µM; with NCI/ADR-RES ovarian, 20.4 µM; in the experiment on OVCAR-3 ovarian, 5.62 µM. In addition, the GI50 in the experiment on MALME-3M melanoma was 8.95 µM; with OVCAR-8 ovarian, 20.2 µM; in the experiment with SK-MEL-28 melanoma it was 56 µM. The TGI in the experiment on TK-10 renal is 62 µM; in the experiment with K-562 leukemia, greater than 100 µM; with PC-3 prostate, greater than 100 µM; with A549 NSCLC, greater than 100 µM; in the experiment on NCI/ADR-RES ovarian, 56.5 µM; in the experiment on OVCAR-3 ovarian, 25.7 µM. The TGI with MALME-3M melanoma was 30.3 µM; in the experiment on OVCAR-8 ovarian, 63.7 µM; in the experiment on SK-MEL-28 melanoma, greater than 100 µM.
With `O=C(O)c1ccccc1NCn1nc(-c2ccccc2O)oc1=S`, the GI50 was greater than 100 µM with TK-10 renal; 70.9 µM in the experiment with K-562 leukemia; 43.6 µM in the experiment on PC-3 prostate; 51 µM in the experiment on A549 NSCLC; 54 µM in the experiment on NCI/ADR-RES ovarian; greater than 100 µM in the experiment with OVCAR-3 ovarian. For the same compound, the GI50 with OVCAR-8 ovarian is greater than 100 µM; in the experiment on SK-MEL-28 melanoma, greater than 100 µM; in the experiment on RXF 393 renal it was 68.9 µM. Further, the TGI with TK-10 renal, with K-562 leukemia, in the experiment with PC-3 prostate, with A549 NSCLC, in the experiment on NCI/ADR-RES ovarian and with OVCAR-3 ovarian was greater than 100 µM throughout. The TGI in the experiment with OVCAR-8 ovarian, in the experiment with SK-MEL-28 melanoma and in the experiment on RXF 393 renal was greater than 100 µM each time.
In the case of `COc1ccc(-c2cnc(-c3ccncc3-c3cccc(OC)c3)o2)cc1`, the GI50 was 11.7 µM with TK-10 renal; 0.0288 µM in the experiment on K-562 leukemia; 0.0379 µM with PC-3 prostate; 0.0409 µM with A549 NSCLC; 0.0265 µM in the experiment on NCI/ADR-RES ovarian; 0.0484 µM with OVCAR-8 ovarian. Moreover, in the experiment on SK-MEL-28 melanoma, the GI50 was 0.0639 µM. The TGI came to 42.1 µM in the experiment on TK-10 renal; 12.8 µM in the experiment on K-562 leukemia; 16.9 µM with PC-3 prostate; 11.3 µM in the experiment with A549 NSCLC; 30.1 µM with NCI/ADR-RES ovarian; 15.3 µM in the experiment on OVCAR-8 ovarian. This compound gave a TGI in the experiment with SK-MEL-28 melanoma of 17.8 µM.
For the compound `CCOC(=O)c1cc(C(=O)c2ccc(OC)c(OC)c2)n2c1ccc1ccc3cccnc3c12`, the GI50 is 7.2 µM with TK-10 renal; 0.96 µM in the experiment on PC-3 prostate; 5.46 µM in the experiment with A549 NSCLC; 0.948 µM with NCI/ADR-RES ovarian; 1.24 µM with MALME-3M melanoma; 3.73 µM with OVCAR-8 ovarian. Also, the GI50 in the experiment with SK-MEL-28 melanoma was 3.7 µM. Further, the TGI in the experiment on TK-10 renal, with PC-3 prostate, in the experiment with A549 NSCLC, in the experiment with NCI/ADR-RES ovarian, in the experiment on MALME-3M melanoma and in the experiment on OVCAR-8 ovarian was greater than 100 µM throughout. In the experiment with SK-MEL-28 melanoma, this compound yielded a TGI greater than 100 µM.
As for `COc1cc2c(c3c1c(=O)c1ccccc1n3C)C=C([N+](=O)[O-])C(C)(C)O2`, the TGI with TK-10 renal, in the experiment with K-562 leukemia, with PC-3 prostate, with A549 NSCLC, in the experiment with NCI/ADR-RES ovarian and in the experiment on OVCAR-3 ovarian was greater than 100 µM throughout. In addition, the figures for the TGI in the experiment on OVCAR-8 ovarian and in the experiment with RXF 393 renal were greater than 100 µM and 0.328 µM, respectively.
On to `COc1cccc(-c2cc(=O)c3cc(N4CCN(C)CC4)ccc3[nH]2)c1`, for which the GI50 in the experiment on TK-10 renal was 13.5 µM; in the experiment with K-562 leukemia, 0.492 µM; in the experiment on PC-3 prostate, 1.55 µM; with A549 NSCLC, 6.99 µM; in the experiment on NCI/ADR-RES ovarian, 3.68 µM; in the experiment with OVCAR-8 ovarian, 1.78 µM. In addition, the GI50 in the experiment on SK-MEL-28 melanoma was 3.99 µM; in the experiment with RXF 393 renal, 0.238 µM. The TGI was 94.6 µM in the experiment with TK-10 renal; 6.22 µM in the experiment with K-562 leukemia; greater than 100 µM with PC-3 prostate; greater than 100 µM in the experiment on A549 NSCLC; 4.99 µM and 6.39 µM in the experiment with OVCAR-8 ovarian; greater than 100 µM in the experiment on SK-MEL-28 melanoma. The TGI in the experiment with RXF 393 renal was 5.77 µM and 0.976 µM.
